# Where a name gives a salt, the structure may show the parent alone.
# Target: T1, human HSL (Homo sapiens, UniProt Q05469)
# T1 construct: generate a full length human HSL ORF with a 3′-His6 tag; His6 (C); made in house; host or cells: High 5 insect cells (baculovirus, pFast-BAC)
# T1 sequence (Q05469 1-1076): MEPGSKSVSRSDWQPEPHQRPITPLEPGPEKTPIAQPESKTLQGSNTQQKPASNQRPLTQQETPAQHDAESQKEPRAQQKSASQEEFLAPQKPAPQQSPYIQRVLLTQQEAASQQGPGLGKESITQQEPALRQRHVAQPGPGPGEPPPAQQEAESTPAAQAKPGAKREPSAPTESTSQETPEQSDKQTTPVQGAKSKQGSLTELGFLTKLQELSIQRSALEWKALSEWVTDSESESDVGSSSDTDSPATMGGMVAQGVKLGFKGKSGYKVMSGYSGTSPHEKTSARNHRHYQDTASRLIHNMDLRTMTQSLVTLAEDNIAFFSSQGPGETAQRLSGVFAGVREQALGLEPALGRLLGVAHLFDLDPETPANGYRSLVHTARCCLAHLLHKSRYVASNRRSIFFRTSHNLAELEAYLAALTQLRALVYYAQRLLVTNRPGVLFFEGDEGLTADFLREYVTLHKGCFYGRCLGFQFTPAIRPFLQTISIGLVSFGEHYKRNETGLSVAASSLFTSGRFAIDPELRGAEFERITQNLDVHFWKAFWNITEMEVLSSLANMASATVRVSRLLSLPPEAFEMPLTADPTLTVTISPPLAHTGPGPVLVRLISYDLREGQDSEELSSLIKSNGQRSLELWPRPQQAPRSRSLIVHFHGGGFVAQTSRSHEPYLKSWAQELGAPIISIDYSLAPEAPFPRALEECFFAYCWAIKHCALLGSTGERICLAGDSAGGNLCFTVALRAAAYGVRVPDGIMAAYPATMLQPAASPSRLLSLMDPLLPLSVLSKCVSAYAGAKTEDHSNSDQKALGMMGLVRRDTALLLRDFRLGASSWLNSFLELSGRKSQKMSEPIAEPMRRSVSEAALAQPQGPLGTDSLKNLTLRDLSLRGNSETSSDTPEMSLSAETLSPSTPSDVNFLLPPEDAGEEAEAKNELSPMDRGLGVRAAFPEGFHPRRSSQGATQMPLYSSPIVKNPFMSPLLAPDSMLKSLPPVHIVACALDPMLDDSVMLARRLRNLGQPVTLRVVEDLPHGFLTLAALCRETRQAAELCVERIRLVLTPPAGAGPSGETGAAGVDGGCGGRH
# Assay: Human Hormone-Sensitive Lipase (HSL) enzyme inhibition assay (colorimetric, DMPT substrate)
# Assay type: biochemical
# Settings: read-out: HSL hum IC50
# Experimental: Production of Human Full Length Hormone Sensitive Lipase-His^6
# 1) Cloning: cDNA was prepared from commercial human brain polyA+ RNA and used as a template in overlapping PCR to generate a full length human HSL ORF with a 3′-His6 tag. This full length insert was cloned into the pFast-BAC vector and the DNA-sequence of several single clones was verified. DNA from a correct full length clone with the 3′His6 tag was used to transform the E. coli strain DH10BAC. Resulting bacmid DNA was used to generate a titered baculovirus stock for protein generation. The sequence of the encoded HSL conforms to Swissprot entry Q05469, with the additional C-terminal His6-tag.
# 2) Protein purification: Culture: 5.5 L, High 5 cells expressing human full length HSL-His^6, 48 hr., containing 25 μM E-64. Cell count: […], 90% viable.
# Cells were thawed. On ice, cells were suspended in Base Buffer containing 10% glycerol, 25 mM Tris-Cl, 300 mM NaCl, 10 mM imidazole, 10 mM 2-mercaptoethanol, 2 μg pepstatin/ml, 2 μg leupeptin/ml, 2 μg antipain/ml, pH 8.0 at 4° C. in a final volume of 475 ml with 3.75×10^7 cells/ml. […] was done at 3×30 sec., Lubrol PX was added to 0.2% final concentration followed by stirring for 15 min. at 4° C. and centrifugation at 25 k×g, 60 min., 4° C. Soluble proteins were mixed with 60 ml of pre-washed and equilibrated Ni-NTA Agarose (Qiagen 30210) followed by tumbling end-over-end, 45 min., 4° C., centrifugation 1000 rpm 5 min and letting resin settle 5 min. Supernatant was removed, the resin washed in the centrifuge vessel using 5 volumes of Base Buffer containing 0.2% Lubrol PX. Centrifugation was done again, then the supernatant discarded. The resin was poured onto a 0.8 μm membrane in a disposable filter unit (Nalge 450-0080), and washed with 5 volumes of Base Buffer containing 0.2% Lubrol PX. It was then washed with 30 volumes of Base Buffer containing 60 mM imidazole pH 7.5 at 4° C. The protein was eluted with 5 volumes of 25 mM Tris-Cl, 300 mM NaCl, 200 mM imidazole, 10 mM 2-mercaptoethanol, pH 7.5 at 4° C. by tumbling resin with buffer end-over-end, 30 min., 4° C. The resin was captured on a 0.2 μm membrane disposable filter unit (Millipore SCGP U02 RE) and the elute collected in the reservoir. The elute was concentrated using a 30 k MWCO centrifugal filter device (Sartorius Vivascience Vivacell 100, VC1022), to 20 ml. It was then dialyzed overnight at 4° C., two times against 2 L of 10% glycerol, 25 mM Tris-Cl, 300 mM NaCl, 0.2 mM EDTA, 0.2 mM DTT, pH 7.5 at 4° C. The protein was filtered using a 0.22 μm disposable filter unit (Millipore SCGP00525). The protein concentration was calculated from absorbance at 280 nm, using 280=0.67 cm-1 mg-1. Yield was 235 mg, total. The protein was stored at −80° C. Human Hormone-Sensitive Lipase (HSL) enzyme inhibition assay:
# HSL enzyme activity was measured by a colorimetric assay using 2,3-dimercapto-1-propanol tributyrate (Aldrich, St. Louis, Mo.) as a substrate. Typically, 1.5 mM 2,3-dimercapto-1-propanol tributyrate (DMPT) in 100 mM MOPS, pH 7.2, 0.2 mg/ml fatty acid-free BSA was prepared by sonication at 4° C. to homogenous suspension. Test compounds (2 mM stock in DMSO) were diluted 3 fold in series in DMSO. Compound solutions were diluted 24 fold in 1.5 mM DMPT containing solution and 18 ul per well was added to 384-well microplates (Corning Costar). Twelve microliters per well of human HSL (15 ug/ml) was added and the reaction mixture was incubated at 37° C. for 20 minutes. Six microliters of 12 mM dithio-bis-(2-nitrobenzoic acid) (DTNB) in DMSO plus 1.2% SDS and 0.6% Triton X-100 were added and the mixture was incubated at room temperature for 15 minutes. Product production was monitored by reading absorbance at 405 nm on an Envision Reader (PerkinElmer Life and Analytical Sciences, Shelton, Conn.).
row,SMILES,IC50
1,"CC(C)(C)c1ccc(NC(=O)N2CCC(N)(C(=O)Nc3ccc(C(C)(C)C)cc3)CC2)cc1 [Example 90, 4-Amino-piperidine-1,4-dicarboxylic acid bis-[(4-tert-butyl-phenyl)-amide]; hydrochloride]",130 nM
2,"Cc1ccc(S(=O)(=O)N2CCC(N)(C(=O)Nc3ccc(OC(C)C)cc3)CC2)cc1 [Example 79, 4-Amino-1-(toluene-4-sulfonyl)-piperidine-4-carboxylic acid (4-isopropoxy-phenyl)-amide; hydrochloride]",130 nM
3,"CC(C)c1ccc(NC(=O)C2(N)CCN(S(=O)(=O)c3ccccc3Cl)CC2)cn1 [Example 101, 4-Amino-1-(2-chloro-benzenesulfonyl)-piperidine-4-carboxylic acid (6-isopropyl-pyridin-3-yl)-amide]",190 nM
4,"CCc1ccc(NC(=O)C2(N)CCN(S(=O)(=O)c3ccc(Cl)nc3)CC2)cc1 [Example 148, 4-Amino-1-(6-chloro-pyridine-3-sulfonyl)-piperidine-4-carboxylic acid (4-ethyl-phenyl)-amide]",610 nM
5,"CC(C)(C)c1ccc(NC(=O)C2(O)CCN(C(=O)c3ccc(F)cc3C(F)(F)F)CC2)cc1 [Example 42, 1-(4-Fluoro-2-trifluoromethyl-benzoyl)-4-hydroxy-piperidine-4-carboxylic acid (4-tert-butyl-phenyl)-amide]",600 nM
6,"CC(C)c1ccc(NC(=O)C2(N)CCN(S(=O)(=O)c3cccc(Cl)c3)CC2)cc1 [Example 117, 4-Amino-1-(3-chloro-benzenesulfonyl)-piperidine-4-carboxylic acid (4-isopropyl-phenyl)-amide]",110 nM
7,"CCc1ccc(NC(=O)C2(N)CCN(S(=O)(=O)c3c(F)cccc3F)CC2)cc1 [Example 142, 4-Amino-1-(2,6-difluoro-benzenesulfonyl)-piperidine-4-carboxylic acid (4-ethyl-phenyl)-amide]",100 nM
8,"NC1(C(=O)Nc2cccc(C(F)(F)F)c2)CCN(S(=O)(=O)c2ccccc2Cl)CC1 [Example 91, 4-Amino-1-(2-chloro-benzenesulfonyl)-piperidine-4-carboxylic acid (3-trifluoromethyl-phenyl)-amide]",710 nM
9,"CC(C)c1ccc(NC(=O)N2CCC(N)(C(=O)Nc3ccc(C(C)C)cc3)CC2)cc1 [Example 107, 4-Amino-piperidine-1,4-dicarboxylic acid bis-[(4-isopropyl-phenyl)-amide]; hydrochloride]",80 nM

# The remaining molecules from weak to strong by IC50, led by results:
row,IC50,SMILES
1,780 nM,"NC1(C(=O)Nc2ccc(F)cc2)CCN(S(=O)(=O)c2ccccc2Cl)CC1 [Example 94, 4-Amino-1-(2-chloro-benzenesulfonyl)-piperidine-4-carboxylic acid (4-fluoro-phenyl)-amide]"
2,290 nM,"Cc1ccccc1S(=O)(=O)N1CCC(O)(C(=O)Nc2ccc(OC(F)(F)F)cc2)CC1 [Example 59, 4-Hydroxy-1-(toluene-2-sulfonyl)-piperidine-4-carboxylic acid (4-trifluoromethoxy-phenyl)-amide]"
3,230 nM,"CC(C)c1ccc(NC(=O)C2(N)CCN(C(=O)c3ccccc3Cl)CC2)cc1 [Example 124, 4-Amino-1-(2-chloro-benzoyl)-piperidine-4-carboxylic acid (4-isopropyl-phenyl)-amide]"
4,220 nM,"Cc1ccccc1CN1CCC(O)(C(=O)Nc2ccc(C(C)(C)C)cc2)CC1 [Example 46, 4-Hydroxy-1-(2-methyl-benzyl)-piperidine-4-carboxylic acid (4-tert-butyl-phenyl)-amide]"
5,210 nM,"CC(C)(C)c1ccc(NC(=O)C2(O)CCN(C(=O)c3ccc(F)cc3)CC2)cc1 [Example 18, 1-(4-Fluoro-benzoyl)-4-hydroxy-piperidine-4-carboxylic acid (4-tert-butyl-phenyl)-amide]"
6,200 nM,"CN(C(=O)C1(O)CCN(S(=O)(=O)c2cccs2)CC1)c1ccc(OC(F)(F)F)cc1 [Example 66, 4-Hydroxy-1-(thiophene-2-sulfonyl)-piperidine-4-carboxylic acid methyl-(4-trifluoromethoxy-phenyl)-amide]"
7,180 nM,"O=C(Nc1ccc(OC(F)(F)F)cc1)C1(O)CCN(Cc2ccccc2Cl)CC1 [Example 63, 1-(2-Chloro-benzyl)-4-hydroxy-piperidine-4-carboxylic acid (4-trifluoromethoxy-phenyl)-amide]"
8,120 nM,"CCc1ccc(NC(=O)C2(N)CCN(Cc3ccccc3C)CC2)cc1 [Example 152, 4-Amino-1-(2-methyl-benzyl)-piperidine-4-carboxylic acid (4-ethyl-phenyl)-amide]"
9,100 nM,"CC(C)c1ccc(NC(=O)C2(N)CCN(C(=O)Nc3ccc(Cl)cc3)CC2)cc1 [Example 108, 4-Amino-piperidine-1,4-dicarboxylic acid 1-[(4-chloro-phenyl)-amide] 4-[(4-isopropyl-phenyl)-amide]; hydrochloride]"
10,100 nM,"Cc1ccccc1S(=O)(=O)N1CCC(O)(C(=O)N(C)c2ccc(OC(F)(F)F)cc2)CC1 [Example 68, 4-Hydroxy-1-(toluene-2-sulfonyl)-piperidine-4-carboxylic acid methyl-(4-trifluoromethoxy-phenyl)-amide]"
11,60 nM,"Cc1ccccc1S(=O)(=O)N1CCC(N)(C(=O)Nc2ccc(C(C)C)cc2)CC1 [Example 119, 4-Amino-1-(toluene-2-sulfonyl)-piperidine-4-carboxylic acid (4-isopropyl-phenyl)-amide]"
12,40 nM,"CN(C(=O)C1(O)CCN(Cc2ccccc2Cl)CC1)c1ccc(OC(F)(F)F)cc1 [Example 71, 1-(2-Chloro-benzyl)-4-hydroxy-piperidine-4-carboxylic acid methyl-(4-trifluoromethoxy-phenyl)-amide]"

# Source: patent US8399676B2, “Piperidine derivatives” (Hoffman-La Roche Inc., priority 2009, dated 2013)
